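Abbreviation: GI50, concentration required for 50% inhibition of growth. The concentration for full growth arrest is given as TGI.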
Assays:
Test in all cases: NCI tumour cell line growth inhibition, 384-well format
OVCAR-3 ovarian = system: OVCAR-3 ovarian
COLO 205 colon = system: COLO 205 colon
MDA-MB-435 melanoma = system: MDA-MB-435 melanoma
HCC-2998 colon = system: HCC-2998 colon
A549 NSCLC = system: A549 NSCLC
ACHN renal = system: ACHN renal
OVCAR-4 ovarian = system: OVCAR-4 ovarian
HCT-15 colon = system: HCT-15 colon
LOX IMVI melanoma = system: LOX IMVI melanoma
T-47D breast = system: T-47D breast
TK-10 renal = system: TK-10 renal
SF-295 CNS = system: SF-295 CNS
SW-620 colon = system: SW-620 colon
NCI/ADR-RES ovarian = system: NCI/ADR-RES ovarian
HOP-92 NSCLC = system: HOP-92 NSCLC
MOLT-4 leukemia = system: MOLT-4 leukemia
K-562 leukemia = system: K-562 leukemia
RXF 393 renal = system: RXF 393 renal
SK-MEL-28 melanoma = system: SK-MEL-28 melanoma
SNB-75 CNS = system: SNB-75 CNS
UACC-257 melanoma = system: UACC-257 melanoma
PC-3 prostate = system: PC-3 prostate
HT29 colon = system: HT29 colon
OVCAR-8 ovarian = system: OVCAR-8 ovarian
NCI-H226 lung = system: NCI-H226 lung
HOP-62 NSCLC = system: HOP-62 NSCLC
EKVX NSCLC = system: EKVX NSCLC
786-0 renal = system: 786-0 renal
IGROV1 ovarian = system: IGROV1 ovarian
MALME-3M melanoma = system: MALME-3M melanoma
NCI-H522 lung = system: NCI-H522 lung
U251 glioblastoma = system: U251 glioblastoma
HL-60(TB) leukemia = system: HL-60(TB) leukemia
OVCAR-5 ovarian = system: OVCAR-5 ovarian
M14 melanoma = system: M14 melanoma
SK-OV-3 ovarian = system: SK-OV-3 ovarian
SR leukemia = system: SR leukemia
DU-145 prostate = system: DU-145 prostate
SN12C renal = system: SN12C renal
NCI-H23 lung = system: NCI-H23 lung
CAKI-1 renal = system: CAKI-1 renal
NCI-H460 NSCLC = system: NCI-H460 NSCLC
MCF7 breast = system: MCF7 breast
SF-539 CNS = system: SF-539 CNS
NCI-H322M lung = system: NCI-H322M lung
MDA-MB-468 breast = system: MDA-MB-468 breast
UACC-62 melanoma = system: UACC-62 melanoma

`C=CC(=O)N1CCC(CNc2ncnc(N)c2-c2ccc(Oc3ccccc3)cc2)CC1` was tested, and the GI50 (OVCAR-3 ovarian) was 16.1 µM, the TGI (OVCAR-3 ovarian) was 30.5 µM and the GI50 (COLO 205 colon) was 22.5 µM. The TGI (COLO 205 colon) was 49.9 µM, the GI50 (MDA-MB-435 melanoma) was 28.7 µM and the TGI (MDA-MB-435 melanoma) was greater than 73.3 µM. For the same molecule, the GI50 (HCC-2998 colon) was 18.7 µM, the TGI (HCC-2998 colon) was 33.2 µM and the GI50 (A549 NSCLC) was 21 µM. It also gave a TGI (A549 NSCLC) of 55.4 µM, a GI50 (ACHN renal) of 25.4 µM and a TGI (ACHN renal) of 66.4 µM. The GI50 (OVCAR-4 ovarian) was 21.2 µM, the TGI (OVCAR-4 ovarian) was 69.7 µM and the GI50 (HCT-15 colon) was 23.6 µM. It also gave a TGI (HCT-15 colon) of 60 µM, a GI50 (LOX IMVI melanoma) of 17.2 µM and a TGI (LOX IMVI melanoma) of 31 µM. The GI50 (T-47D breast) was 17.7 µM, the TGI (T-47D breast) was 46.6 µM and the GI50 (TK-10 renal) was 18.3 µM. The TGI (TK-10 renal) was 36.2 µM, the GI50 (SF-295 CNS) was 26.1 µM and the TGI (SF-295 CNS) was greater than 71.1 µM. For the same molecule, the GI50 (SW-620 colon) was 18.6 µM, the TGI (SW-620 colon) was 34 µM and the GI50 (NCI/ADR-RES ovarian) was 15.9 µM. The TGI (NCI/ADR-RES ovarian) was 34.5 µM, the GI50 (HOP-92 NSCLC) was 15.2 µM and the TGI (HOP-92 NSCLC) was 39.1 µM. It also gave a GI50 (MOLT-4 leukemia) of 14.5 µM, a TGI (MOLT-4 leukemia) of 27.7 µM and a GI50 (K-562 leukemia) of 15.2 µM. It also gave a TGI (K-562 leukemia) of 29.5 µM, a GI50 (RXF 393 renal) of 15.1 µM and a TGI (RXF 393 renal) of 36.6 µM. For the same molecule, the GI50 (SK-MEL-28 melanoma) was 36.4 µM, the TGI (SK-MEL-28 melanoma) was greater than 86.9 µM and the GI50 (SNB-75 CNS) was 15 µM. The TGI (SNB-75 CNS) was 36.5 µM, the GI50 (UACC-257 melanoma) was 18.1 µM and the TGI (UACC-257 melanoma) was 34.2 µM. It also gave a GI50 (PC-3 prostate) of 18.5 µM, a TGI (PC-3 prostate) of 41.2 µM and a GI50 (HT29 colon) of 25 µM. It also gave a TGI (HT29 colon) of 63.1 µM, a GI50 (OVCAR-8 ovarian) of 21.2 µM and a TGI (OVCAR-8 ovarian) greater than 62.2 µM. It also gave a GI50 (NCI-H226 lung) of 15.6 µM, a TGI (NCI-H226 lung) of 36 µM and a GI50 (HOP-62 NSCLC) of 20.7 µM. It also gave a TGI (HOP-62 NSCLC) of 48.3 µM, a GI50 (EKVX NSCLC) of 20.1 µM and a TGI (EKVX NSCLC) of 48.7 µM. For the same molecule, the GI50 ([…]-0 renal) was 18.7 µM, the TGI (786-0 renal) was 42.9 µM and the GI50 (IGROV1 ovarian) was 14.6 µM. For the same molecule, the TGI (IGROV1 ovarian) was 28.3 µM, the GI50 (MALME-3M melanoma) was 30.5 µM and the TGI (MALME-3M melanoma) was greater than 73.5 µM. The GI50 (NCI-H522 lung) was 4.12 µM, the TGI (NCI-H522 lung) was 15.7 µM and the GI50 (U251 glioblastoma) was 18.6 µM. The TGI (U251 glioblastoma) was 40.6 µM, the GI50 (HL-60(TB) leukemia) was 11.8 µM and the TGI (HL-60(TB) leukemia) was 24 µM. For the same molecule, the GI50 (OVCAR-5 ovarian) was 38.1 µM, the TGI (OVCAR-5 ovarian) was greater than 100 µM and the GI50 (M14 melanoma) was 29.6 µM. For the same molecule, the TGI (M14 melanoma) was 77.4 µM, the GI50 (SK-OV-3 ovarian) was 16.2 µM and the TGI (SK-OV-3 ovarian) was 44.9 µM. For the same molecule, the GI50 (SR leukemia) was 8.25 µM, the TGI (SR leukemia) was 21.3 µM and the GI50 (DU-145 prostate) was 19.5 µM. The TGI (DU-145 prostate) was 46.4 µM, the GI50 (SN12C renal) was 17 µM and the TGI (SN12C renal) was 43 µM. It also gave a GI50 (NCI-H23 lung) of 20.3 µM, a TGI (NCI-H23 lung) of 42.2 µM and a GI50 (CAKI-1 renal) of 16.9 µM. It also gave a TGI (CAKI-1 renal) of 43.1 µM, a GI50 (NCI-H460 NSCLC) of 19.6 µM and a TGI (NCI-H460 NSCLC) of 41.2 µM. For the same molecule, the GI50 (MCF7 breast) was 25.7 µM, the TGI (MCF7 breast) was 98.1 µM and the GI50 (SF-539 CNS) was 20.9 µM. The TGI (SF-539 CNS) was greater than 58.6 µM, the GI50 (NCI-H322M lung) was 20.4 µM and the TGI (NCI-H322M lung) was greater than 69.2 µM. The GI50 (MDA-MB-468 breast) was 10.6 µM, the TGI (MDA-MB-468 breast) was 23.2 µM and the GI50 (UACC-62 melanoma) was 16.6 µM. For the same molecule, the TGI (UACC-62 melanoma) was 33.5 µM.
